# Assay: Stability of the solid form under mass pressure
# Type: physicochemical
# Settings: mass pressure of 1 ton for 3 minutes
# Protocol: Form 3 is characterized by needle to ‘rod-like’ morphology. This morphology may be beneficial for flowability properties. In addition, Form 3 is found to be stable under mass pressure of 1 ton for 3 minutes.
smiles,measurement,value
"Cc1cn2nc(-c3cc(=O)n4cc(N5CCNC6(CC6)C5)ccc4n3)cc(C)c2n1 [Form 3, 7-(4,7-diazaspiro[2.5]octan-7-yl)-2-(2,8-dimethylimidazo[1,2-b]pyridazin-6-yl)-4H-pyrido[1,2-a]pyrimidin-4-one]",stability under mass pressure,stable
